HELM strings list units from the 5' end as sugar, base in round brackets, then linkage (d deoxyribose, r ribose, m 2'-O-methyl, p phosphodiester). [sp] = phosphorothioate linkage
Key:
CDKN2B-AS1 [1] = experiment: HEK293-TLR7, 100 nM ASO, then resiquimod
CDKN2B-AS1 [2] = experiment: HEK293-TLR8, 100 nM ASO, then resiquimod

Substance | TLR7 signal (NF-kB luciferase) (% of resiquimod alone) (CDKN2B-AS1 [1]) | TLR8 potentiation (NF-kB luciferase) (fold of resiquimod alone) (CDKN2B-AS1 [2])
RNA1{m(G)[sp].m(A)[sp].m(G)[sp].m(U)[sp].m(U)[sp].d(C)[sp].d(T)[sp].d(T)[sp].d(C)[sp].d(G)[sp].d(T)[sp].d(A)[sp].d(G)[sp].d(G)[sp].d(C)[sp].m(U)[sp].m(U)[sp].m(C)[sp].m(U)[sp].m(G)}$$$$ | 25.9 | 0.96
RNA1{m(G)[sp].m(A)[sp].m(U)[sp].m(U)[sp].m(A)[sp].d(A)[sp].d(A)[sp].d(A)[sp].d(C)[sp].d(A)[sp].d(G)[sp].d(A)[sp].d(T)[sp].d(T)[sp].d(A)[sp].m(A)[sp].m(U)[sp].m(A)[sp].m(C)[sp].m(A)}$$$$ | 21.9 | 0.73
RNA1{m(G)[sp].m(C)[sp].m(A)[sp].m(G)[sp].m(U)[sp].d(C)[sp].d(T)[sp].d(C)[sp].d(C)[sp].d(A)[sp].d(T)[sp].d(G)[sp].d(T)[sp].d(C)[sp].d(C)[sp].m(C)[sp].m(A)[sp].m(G)[sp].m(G)[sp].m(C)}$$$$ | 20.3 | 1.79
RNA1{m(G)[sp].m(G)[sp].m(A)[sp].m(C)[sp].m(A)[sp].d(C)[sp].d(T)[sp].d(T)[sp].d(A)[sp].d(G)[sp].d(C)[sp].d(T)[sp].d(G)[sp].d(T)[sp].d(T)[sp].m(C)[sp].m(C)[sp].m(U)[sp].m(C)[sp].m(G)}$$$$ | 45.8 | 1.13
RNA1{m(G)[sp].m(G)[sp].m(A)[sp].m(G)[sp].m(A)[sp].d(T)[sp].d(C)[sp].d(A)[sp].d(G)[sp].d(A)[sp].d(T)[sp].d(G)[sp].d(A)[sp].d(G)[sp].d(A)[sp].m(G)[sp].m(G)[sp].m(A)[sp].m(G)[sp].m(C)}$$$$ | 26.3 | 1.05
RNA1{m(G)[sp].m(G)[sp].m(A)[sp].m(U)[sp].m(U)[sp].d(A)[sp].d(A)[sp].d(A)[sp].d(A)[sp].d(C)[sp].d(A)[sp].d(G)[sp].d(A)[sp].d(T)[sp].d(T)[sp].m(A)[sp].m(A)[sp].m(U)[sp].m(A)[sp].m(C)}$$$$ | 27.2 | 1.16
RNA1{m(G)[sp].m(G)[sp].m(U)[sp].m(G)[sp].m(G)[sp].d(C)[sp].d(C)[sp].d(A)[sp].d(C)[sp].d(A)[sp].d(G)[sp].d(G)[sp].d(C)[sp].d(A)[sp].d(A)[sp].m(C)[sp].m(G)[sp].m(U)[sp].m(C)[sp].m(A)}$$$$ | 39.1 | 0.8
RNA1{m(G)[sp].m(U)[sp].m(C)[sp].m(A)[sp].m(A)[sp].d(A)[sp].d(C)[sp].d(C)[sp].d(T)[sp].d(A)[sp].d(G)[sp].d(A)[sp].d(A)[sp].d(A)[sp].d(G)[sp].m(A)[sp].m(A)[sp].m(G)[sp].m(C)[sp].m(A)}$$$$ | 23.6 | 1.6
RNA1{m(G)[sp].m(U)[sp].m(C)[sp].m(C)[sp].m(C)[sp].d(A)[sp].d(G)[sp].d(G)[sp].d(C)[sp].d(C)[sp].d(T)[sp].d(C)[sp].d(C)[sp].d(A)[sp].d(G)[sp].m(U)[sp].m(G)[sp].m(U)[sp].m(C)[sp].m(U)}$$$$ | 19 | 1.05
RNA1{m(G)[sp].m(U)[sp].m(C)[sp].m(G)[sp].m(U)[sp].d(G)[sp].d(G)[sp].d(C)[sp].d(A)[sp].d(A)[sp].d(A)[sp].d(T)[sp].d(A)[sp].d(G)[sp].d(T)[sp].m(C)[sp].m(C)[sp].m(U)[sp].m(A)[sp].m(G)}$$$$ | 27.5 | 2.12
RNA1{m(G)[sp].m(U)[sp].m(C)[sp].m(U)[sp].m(C)[sp].d(C)[sp].d(A)[sp].d(T)[sp].d(G)[sp].d(T)[sp].d(C)[sp].d(C)[sp].d(C)[sp].d(A)[sp].d(G)[sp].m(G)[sp].m(C)[sp].m(C)[sp].m(U)[sp].m(C)}$$$$ | 23.8 | 1.01
RNA1{m(G)[sp].m(U)[sp].m(C)[sp].m(U)[sp].m(C)[sp].d(T)[sp].d(A)[sp].d(C)[sp].d(T)[sp].d(G)[sp].d(T)[sp].d(T)[sp].d(A)[sp].d(C)[sp].d(C)[sp].m(U)[sp].m(C)[sp].m(U)[sp].m(G)[sp].m(A)}$$$$ | 19.2 | 2.41
RNA1{m(G)[sp].m(U)[sp].m(G)[sp].m(G)[sp].m(U)[sp].d(T)[sp].d(A)[sp].d(A)[sp].d(G)[sp].d(T)[sp].d(A)[sp].d(C)[sp].d(A)[sp].d(T)[sp].d(G)[sp].m(A)[sp].m(G)[sp].m(C)[sp].m(U)[sp].m(C)}$$$$ | 21.6 | 0.59
RNA1{m(G)[sp].m(U)[sp].m(G)[sp].m(U)[sp].m(C)[sp].d(C)[sp].d(T)[sp].d(T)[sp].d(C)[sp].d(A)[sp].d(T)[sp].d(G)[sp].d(C)[sp].d(T)[sp].d(T)[sp].m(U)[sp].m(G)[sp].m(G)[sp].m(A)[sp].m(U)}$$$$ | 18.1 | 1.33
RNA1{m(G)[sp].m(U)[sp].m(G)[sp].m(U)[sp].m(U)[sp].d(T)[sp].d(T)[sp].d(T)[sp].d(A)[sp].d(A)[sp].d(T)[sp].d(T)[sp].d(T)[sp].d(T)[sp].d(G)[sp].m(U)[sp].m(A)[sp].m(G)[sp].m(A)[sp].m(G)}$$$$ | 23.6 | 1.31
RNA1{m(U)[sp].m(A)[sp].m(A)[sp].m(A)[sp].m(A)[sp].d(T)[sp].d(A)[sp].d(A)[sp].d(G)[sp].d(G)[sp].d(G)[sp].d(G)[sp].d(A)[sp].d(A)[sp].d(T)[sp].m(A)[sp].m(G)[sp].m(G)[sp].m(G)[sp].m(G)}$$$$ | 41 | 1.28

— the OligoGym collection
